This experiment concerns the target hROMK (human Kir1.1) (Homo sapiens (Human), UniProt P48048). The experiment can be described thus: cell-based. Particulars: CHO T-Rex hROMK stable cell line; thallium flux; 10-point concentration response curve; read-out: Human ROMK Th Flux IC50.

hROMK (human Kir1.1), sequence (P48048 whole entry): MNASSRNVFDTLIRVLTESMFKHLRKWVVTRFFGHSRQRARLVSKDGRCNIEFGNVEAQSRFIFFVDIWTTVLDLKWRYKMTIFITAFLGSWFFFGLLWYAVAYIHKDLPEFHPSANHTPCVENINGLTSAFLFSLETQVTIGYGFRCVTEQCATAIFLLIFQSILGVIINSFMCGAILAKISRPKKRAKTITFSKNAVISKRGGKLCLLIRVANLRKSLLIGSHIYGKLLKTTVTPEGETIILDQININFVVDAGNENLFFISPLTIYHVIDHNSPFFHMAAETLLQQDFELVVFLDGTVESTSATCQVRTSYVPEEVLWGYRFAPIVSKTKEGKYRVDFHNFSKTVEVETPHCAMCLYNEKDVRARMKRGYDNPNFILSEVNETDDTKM

As to `Cc1cc(-n2cc(C(O)CN3CCO[C@H](c4ccc5c(c4C)COC5=O)C3)cn2)ncc1C#N` (single isomer, unassigned) [Example 18-I], the 50% inhibitory concentration (IC50) was 870 nM.

For `Cc1cc(N2CC(CN3CCN[C@H](c4ccc5c(c4C)COC5=O)C3)OC2=O)ncc1C#N` (single isomer, unassigned) [Example 160-I], the IC50 came out at 130 nM.

`COc1cc(-n2cc(CN3CC(c4ccc5c(c4C)COC5=O)NC(C(C)O)C3)cn2)ncc1C#N` (single isomer, unassigned) [Example 204-I, 6-(4-((3-(1-hydroxyethyl)-5-(4-methyl-1-oxo-1,3-dihydroisobenzofuran-5-yl)piperazin-1-yl)methyl)-1H-pyrazol-1-yl)-4-methoxynicotinonitrile]: the IC50 was 220 nM.

On to `Cc1cc(-n2cc(CN3CC(F)C(c4ccc5c(c4C)COC5=O)C3)cn2)ncc1C#N` (single isomer, unassigned) [Example 212-II, 6-(4-((3-fluoro-4-(4-methyl-1-oxo-1,3-dihydroisobenzofuran-5-yl)pyrrolidin-1-yl)methyl)-1H-pyrazol-1-yl)-4-methylnicotinonitrile], for which the IC50 turned out to be 97 nM.

Regarding `Cc1cc(-n2cc(CN3CC(c4ccc5c(c4C)COC5=O)NC(C(C)(C)O)C3)cn2)ncc1C#N` (single isomer, unassigned) [Example 213-I, 6-(4-((3-(2-hydroxypropan-2-yl)-5-(4-methyl-1-oxo-1,3-dihydroisobenzofuran-5-yl)piperazin-1-yl)methyl)-1H-pyrazol-1-yl)-4-methynicotinonitrile], the IC50 was 1200 nM.

Take `CC(=O)NC1CCN(Cc2cnn(-c3cc(C)c(C#N)cn3)c2)CC1c1ccc2c(c1C)COC2=O` (single isomer, unassigned) [Example 248-I, N-(1-((1-(5-cyano-4-methylpyridin-2-yl)-1H-pyrazol-4-yl)methyl)-3-(4-methyl-1-oxo-1,3-dihydroisobenzofuran-5-yl)piperidin-4-yl)acetamide]: the half-inhibitory concentration (IC50) is 1500 nM.

As for `CC(=O)NC1CC(c2ccc3c(c2C)COC3=O)CN(Cc2cnn(-c3cc(C)c(C#N)cn3)c2)C1` (single isomer, unassigned) [Example 257-I, N-(1-((1-(5-cyano-4-mehtylpyridin-2-yl)-1H-pyrazol-4-yl)methyl)-5-(4-methyl-1-oxo-1,3-dihydroisobenzofuran-5-yl)piperidin-3-yl)acetamide], the 50% inhibitory concentration (IC50) came out at 1400 nM.

Regarding `CNC(=O)OC1CCN(Cc2cnn(-c3cc(C)c(C#N)cn3)c2)CC1c1ccc2c(c1C)COC2=O` (single isomer, unassigned) [Example 258-I, 1-((1-(5-cyano-4-methylpyridin-2-yl)-1H-pyrazol-4-yl)methyl)-3-(4-methyl-1-oxo-1,3-dihydroisobenzofuran-5-yl)piperidin-4-yl methylcarbamate], the half-inhibitory concentration (IC50) came to 250 nM.

For the compound `Cc1cc(-c2nnc(CN3CC(c4ccc5c(c4C)COC5=O)NC(C(F)F)C3)o2)ncc1C#N` (single isomer, unassigned) [Example 273-I, 6-(5-((3-(difluoromethyl)-5-(4-methyl-1-oxo-1,3-dihydroisobenzofuran-5-yl)piperazin-1-yl)methyl)-1,3,4-oxadiazol-2-yl)-4-methylnicotinonitrile], the IC50 was 720 nM.

As for `Cc1cc(-n2cc(CN3CCO[C@@H](c4ccc5c(c4C)COC5=O)C3)cn2)ncc1C#N` [Example 1-II, (S)-4-methyl-6-(4-((2-(4-methyl-1-oxo-1,3-dihydroisobenzofuran-5-yl)morpholino)methyl)-1H-pyrazol-1-yl) nicotinonitrile], the concentration for half-maximal inhibition (IC50) amounted to 800 nM.

For `Cc1c(C2CN(Cc3cnn(-c4ccc5oc(=O)n(C)c5c4)c3)CCC2(F)F)ccc2c1COC2=O` (centres unmarked) [Example 4, 5-(4-((4,4-difluoro-3-(4-methyl-1-oxo-1,3-dihydroisobenzofuran-5-yl)piperidin-1-yl)methyl)-1H-pyrazol-1-yl)-3-methylbenzo[d]oxazol-2(3H)-one], the 50% inhibitory concentration (IC50) was 640 nM.

Regarding `Cc1cc(-n2cc(CN3CCC(F)(F)C(c4ccc5c(c4C)COC5=O)C3)cn2)ncc1C#N` (centres unmarked) [Example 5, 6-(4-((4,4-difluoro-3-(4-methyl-1-oxo-1,3-dihydroisobenzofuran-5-yl)piperidin-1-yl)methyl)-1H-pyrazol-1-yl)-4-methylnicotinonitrile], the half-inhibitory concentration (IC50) came out at 270 nM.

As for `Cc1ncc(-n2cc(CN3CCO[C@H](c4ccc5c(c4C)COC5=O)C3)cn2)s1` [Example 7-I, (R)-4-methyl-5-(4-((1-(2-methylthiazol-5-yl)-1H-pyrazol-4-yl)methyl)morpholin-2-yl) isobenzofuran-1(3H)-one], the concentration for half-maximal inhibition (IC50) amounted to 1000 nM.

As for `Cc1c([C@@H]2CN(Cc3cnn(-c4cc(C5CC5)c(C#N)cn4)c3)CCO2)ccc2c1COC2=O` [Example 8-I, (R)-4-cyclopropyl-6-(4-((2-(4-methyl-1-oxo-1,3-dihydroisobenzofuran-5-yl)morpholino)methyl)-1H-pyrazol-1-yl)nicotinonitrile], the IC50 is 280 nM.

In the case of `Cc1cc(-n2cc(CN3C[C@@H](c4ccc5c(c4C)COC5=O)OCC3=O)cn2)ncc1C#N` [Example 10-I, (R)-4-methyl-6-(4-((2-(4-methyl-1-oxo-1,3-dihydroisobenzofuran-5-yl)-5-oxomorpholino)methyl)-1H-pyrazol-1-yl)nicotinonitrile], the concentration for half-maximal inhibition (IC50) was found to be 620 nM.

Take `Cc1c([C@@H]2CN(Cc3nnc(-c4ccc(C#N)cn4)o3)CCO2)ccc2c1COC2=O` [Example 12-I, (R)-6-(5-((2-(4-methyl-1-oxo-1,3-dihydroisobenzofuran-5-yl)morpholino)methyl)-1,3,4-oxadiazol-2-yl)nicotinonitrile]: the IC50 was determined as 530 nM.

As to `Cc1cc(-c2nnc(CN3CCN[C@H](c4ccc5c(c4C)COC5=O)C3)o2)ncc1C#N` [Example 13-I, (R)-4-methyl-6-(5-((3-(4-methyl-1-oxo-1,3-dihydroisobenzofuran-5-yl)piperazin-1-yl)methyl)-1,3,4-oxadiazol-2-yl)nicotinonitrile], the concentration for half-maximal inhibition (IC50) is 110 nM.

As to `COc1cc(-c2ccc(CN3C[C@@H](c4ccc5c(c4C)COC5=O)OC3=O)cn2)ncc1C#N` [Example 17-I, (R)-4-methoxy-5′-((5-(4-methyl-1-oxo-1,3-dihydroisobenzofuran-5-yl)-2-oxooxazolidin-3-yl)methyl)-[2,2′-bipyridine]-5-carbonitrile], the half-maximal inhibitory concentration (IC50) was determined as 900 nM.

On to `Cc1c([C@@H]2CN(Cc3cnc(-c4ccc5oc(=O)n(C)c5c4)s3)CCO2)ccc2c1COC2=O` [Example 19-I, (R)-3-methyl-5-(5-((2-(4-methyl-1-oxo-1,3-dihydroisobenzofuran-5-yl)morpholino)methyl)thiazol-2-yl)benzo[d]oxazol-2(3H)-one], for which the IC50 stood at 180 nM.

For `Cc1c([C@@H]2CN(C(=O)c3cnc(-c4ccc5oc(=O)n(C)c5c4)s3)CCO2)ccc2c1COC2=O` [Example 20-I, (R)-3-methyl-5-(5-(2-(4-methyl-1-oxo-1,3-dihydroisobenzofuran-5-yl)morpholine-4-carbonyl)thiazol-2-yl)benzo[d]oxazol-2(3H)-one], the IC50 is 490 nM.

Regarding `COC(=O)N1CCN(Cc2cnn(-c3cc(C)c(C#N)cn3)c2)C[C@H]1c1ccc2c(c1C)COC2=O` [Example 24-I, Methyl (R)-4-((1-(5-cyano-4-methylpyridin-2-yl)-1H-pyrazol-4-yl)methyl)-2-(4-methyl-1-oxo-1,3-dihydroisobenzofuran-5-yl)piperazine-1-carboxylate], the IC50 came out at 500 nM.

With `Cc1c([C@@H]2CN(Cc3cn(-c4ccc5oc(=O)n(C)c5c4)cn3)CCO2)ccc2c1COC2=O` [Example 29-I, (R)-3-methyl-5-(4-((2-(4-methyl-1-oxo-1,3-dihydroisobenzofuran-5-yl)morpholino)methyl)-1H-imidazol-1-yl) benzo[d]oxazol-2(3H)-one], the IC50 came out at 120 nM.

With `Cc1cc(-c2nnc(CN3CCO[C@H](c4ccc5c(c4C)COC5=O)C3)o2)ncc1C#N` [Example 30-I, (R)-4-methyl-6-(5-((2-(4-methyl-1-oxo-1,3-dihydroisobenzofuran-5-yl)morpholino)methyl)-1,3,4-oxadiazol-2-yl) nicotinonitrile], the concentration for half-maximal inhibition (IC50) turned out to be 260 nM.

In the case of `Cc1cc(-n2cc(CCN3CCO[C@H](c4ccc5c(c4C)COC5=O)C3)cn2)ncc1C#N` [Example 31-I, (R)-4-methyl-6-(4-(2-(2-(4-methyl-1-oxo-1,3-dihydroisobenzofuran-5-yl)morpholino)ethyl)-1H-pyrazol-1-yl) nicotinonitrile], the IC50 came to 190 nM.

Consider `Cc1cc(-c2ncc(C(=O)N3CCO[C@H](c4ccc5c(c4C)COC5=O)C3)s2)ncc1C#N` [Example 33-I, (R)-4-methyl-6-(5-(2-(4-methyl-1-oxo-1,3-di-hydroisobenzofuran-5-yl)morpholine-4-carbonyl)thiazol-2-yl) nicotinonitrile], for which the IC50 is 690 nM.

Take `COc1cc(-c2ncc(C(=O)N3CCO[C@H](c4ccc5c(c4C)COC5=O)C3)s2)ncc1C#N` [Example 34-I, (R)-4-methoxy-6-(5-(2-(4-methyl-1-oxo-1,3-dihydroisobenzofuran-5-yl)morpholine-4-carbonyl)thiazol-2-yl) nicotinonitrile]: the concentration for half-maximal inhibition (IC50) came out at 190 nM.

Regarding `Cc1cn(-c2ncc(CN3CCO[C@H](c4ccc5c(c4C)COC5=O)C3)s2)cn1` [Example 36-I, (R)-4-methyl-5-(4-((2-(4-methyl-1H-imidazol-1-yl)thiazol-5-yl)methyl)morpholin-2-yl)iso-benzofuran-1(3H)-one], the IC50 is 680 nM.

For the compound `Cc1c([C@@H]2CN(Cc3cnn(-c4ccsc4)c3)CCO2)ccc2c1COC2=O` [Example 38-I, (R)-4-methyl-5-(4-((1-(thiophen-3-yl)-1H-pyrazol-4-yl)methyl)morpholin-2-yl)isobenzo-furan-1(3H)-one], the IC50 came out at 3400 nM.

With `Cc1c([C@@H]2CN(Cc3cnn(-c4cnccn4)c3)CCO2)ccc2c1COC2=O` [Example 39-I, (R)-4-methyl-5-(4-((1-(pyrazin-2-yl)-1H-pyrazol-4-yl)methyl)morpholin-2-yl)isobenzo-furan-1(3H)-one], the IC50 amounted to 770 nM.

For orientation: IC50 means the point on the concentration scale where inhibition reaches its midpoint.
